Test results published in ChEMBL document CHEMBL3774368, “1,2,4-Triazolyl octahydropyrrolo[2,3-b]pyrroles: A new series of potent and selective dopamine D3 receptor antagonists” (Bioorg Med Chem, 2016).
Calls of active or inactive are those of the source. No cut-off for these calls is given here.

Test system: not listed separately
Assay: in vitro
Settings: human, liver microsomes, CLH

Row | SMILES | microsomal CLint at 0.5 µM
1 | Cn1c(SCCCN2CC3CCN(c4ccc(C(F)(F)F)cc4)C3C2)nnc1-c1ccc(=O)n(C)c1 (stereo in doubt; 57a) | 152 µL/min/mg

Species: Homo sapiens
Assay: Selectivity ratio of IC50 for human ERG to Ki for human dopamine D3 receptor
Settings: not given

Row | SMILES | Selectivity ratio
2 | Cn1c(SCCCN2CC3CCN(c4ccc(C(F)(F)F)cc4)C3C2)nnc1-c1cc[nH]c(=O)c1 (racemic) | > 100
3 | Cn1c(SCCCN2CC3CCN(c4ccc(C(F)(F)F)cc4)C3C2)nnc1-c1cc[nH]c(=O)c1 (stereo in doubt; 55b) | > 250

Test system: not listed separately
Assay: Solubility of compound
Format: physicochemical
Settings: not given

Row | SMILES | solubility
4 | Cc1ncoc1-c1nnc(SCCCN2CC3CCN(c4ccccc4)C3C2)n1C.Cl (stereo unspecified) | > 2000 µg/mL
5 | Cc1ncoc1-c1nnc(SCCCN2CC3CCN(c4ccc(C(F)(F)F)cc4)C3C2)n1C.Cl (stereo unspecified) | 300 µg/mL

Molecular target: D(1A) dopamine receptor (Homo sapiens) (UniProt P21728)
Assay: Binding affinity to dopamine D1 receptor (unknown origin)
Settings: not given

Sequence of D(1A) dopamine receptor (Homo sapiens) (P21728 whole entry): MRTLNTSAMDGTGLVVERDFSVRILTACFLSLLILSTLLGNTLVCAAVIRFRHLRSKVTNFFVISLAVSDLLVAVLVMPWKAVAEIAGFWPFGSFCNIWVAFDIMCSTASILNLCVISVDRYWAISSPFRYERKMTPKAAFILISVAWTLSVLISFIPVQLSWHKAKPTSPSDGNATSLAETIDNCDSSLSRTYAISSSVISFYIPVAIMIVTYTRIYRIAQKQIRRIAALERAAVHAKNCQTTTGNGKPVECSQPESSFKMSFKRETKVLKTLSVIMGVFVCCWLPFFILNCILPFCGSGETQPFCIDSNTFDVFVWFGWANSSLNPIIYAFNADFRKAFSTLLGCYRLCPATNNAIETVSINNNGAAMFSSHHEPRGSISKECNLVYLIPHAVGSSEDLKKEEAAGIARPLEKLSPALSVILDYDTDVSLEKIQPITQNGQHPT

Row | SMILES | Activity
6 | Cn1c(SCCCN2CC3CCN(c4ccc(C(F)(F)F)cc4)C3C2)nnc1-c1ccc(=O)n(C)c1 (stereo in doubt; 57b) | inactive
7 | Cn1c(SCCCN2CC3CCN(c4ccccc4C(F)(F)F)C3C2)nnc1-c1cccnc1 (stereo in doubt; 52a) | inactive
8 | Cc1ncoc1-c1nnc(SCCCN2CC3CCN(c4ccc(C(F)(F)F)cc4F)C3C2)n1C (stereo in doubt; 8b) | inactive
9 | Cc1ncoc1-c1nnc(SCCCN2CC3CCN(c4ccccc4)C3C2)n1C (stereo in doubt; 6b) | inactive
10 | Cn1c(SCCCN2CC3CCN(c4ccc(C(F)(F)F)cc4)C3C2)nnc1-c1cc[nH]c(=O)c1 (stereo in doubt; 55b) | inactive
11 | Cn1c(SCCCN2CC3CCN(c4ccccc4)C3C2)nnc1C1CCOCC1 (stereo in doubt; 62a) | inactive

Test system: not listed separately
Assay: Permeability across apical to basolateral side in human Caco2 cells
Settings: Caco-2

Row | SMILES | permeability
12 | Cn1c(SCCCN2CC3CCN(c4ccc(C(F)(F)F)cc4)C3C2)nnc1-c1ccc(=O)n(C)c1 (stereo in doubt; 57a) | 3.9 ×10⁻⁶ cm/s

Test system: not listed separately
Assay: in vitro
Settings: rat, liver microsomes, CLH

Row | SMILES | microsomal CLint at 0.5 µM
13 | Cn1c(SCCCN2CC3CCN(c4ccc(C(F)(F)F)cc4)C3C2)nnc1-c1ccc(=O)n(C)c1 (stereo in doubt; 57a) | 23 µL/min/mg

Molecular target: T1, D(4) dopamine receptor (Homo sapiens) (UniProt P21917)
T1 sequence (whole entry): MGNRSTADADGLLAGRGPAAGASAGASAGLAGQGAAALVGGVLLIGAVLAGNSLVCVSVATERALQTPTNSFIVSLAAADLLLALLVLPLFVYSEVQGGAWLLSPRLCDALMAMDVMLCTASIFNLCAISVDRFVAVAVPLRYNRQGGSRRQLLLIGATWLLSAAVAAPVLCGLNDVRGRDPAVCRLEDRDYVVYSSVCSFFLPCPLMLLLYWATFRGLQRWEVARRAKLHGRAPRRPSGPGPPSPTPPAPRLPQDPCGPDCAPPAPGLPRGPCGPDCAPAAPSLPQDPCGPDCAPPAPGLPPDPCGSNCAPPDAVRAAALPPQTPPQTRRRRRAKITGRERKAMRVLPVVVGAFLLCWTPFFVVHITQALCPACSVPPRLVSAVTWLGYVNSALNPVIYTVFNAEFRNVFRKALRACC
Assay: Binding affinity to dopamine D4 receptor (unknown origin)
Settings: not given

Row | SMILES | Activity
14 | Cn1c(SCCCN2CC3CCN(c4ccc(C(F)(F)F)cc4)C3C2)nnc1-c1ccc(=O)n(C)c1 (stereo in doubt; 57b) | inactive
15 | Cn1c(SCCCN2CC3CCN(c4ccccc4C(F)(F)F)C3C2)nnc1-c1cccnc1 (stereo in doubt; 52a) | inactive
16 | Cn1c(SCCCN2CC3CCN(c4ccccc4)C3C2)nnc1C1CCOCC1 (stereo in doubt; 62a) | inactive
